Data taken from publication PMC10649927, “Integration of Deep Learning and Sequential Metabolism to Rapidly Screen Dipeptidyl Peptidase (DPP)-IV Inhibitors from Gardenia jasminoides Ellis” (Molecules, 2023).

Biological target: T1, human recombinant DPP-IV (Homo sapiens, UniProt P27487)
T1 construct: gene DPP4; commercial recombinant human enzyme from ProSpec (Rehovot, Israel)
Experiment: Gly-Pro-pNA hydrolysis, absorbance at […] nm
Type: biochemical
Details: Gly-Pro-pNA substrate (20 µL of 1.75 mM), 0.1 M Tris-HCl, 0.1 M NaCl, 1 mM EDTA, pH 8.0, 37 °C, 30 min

T1 sequence (P27487 29-766 limits assumed): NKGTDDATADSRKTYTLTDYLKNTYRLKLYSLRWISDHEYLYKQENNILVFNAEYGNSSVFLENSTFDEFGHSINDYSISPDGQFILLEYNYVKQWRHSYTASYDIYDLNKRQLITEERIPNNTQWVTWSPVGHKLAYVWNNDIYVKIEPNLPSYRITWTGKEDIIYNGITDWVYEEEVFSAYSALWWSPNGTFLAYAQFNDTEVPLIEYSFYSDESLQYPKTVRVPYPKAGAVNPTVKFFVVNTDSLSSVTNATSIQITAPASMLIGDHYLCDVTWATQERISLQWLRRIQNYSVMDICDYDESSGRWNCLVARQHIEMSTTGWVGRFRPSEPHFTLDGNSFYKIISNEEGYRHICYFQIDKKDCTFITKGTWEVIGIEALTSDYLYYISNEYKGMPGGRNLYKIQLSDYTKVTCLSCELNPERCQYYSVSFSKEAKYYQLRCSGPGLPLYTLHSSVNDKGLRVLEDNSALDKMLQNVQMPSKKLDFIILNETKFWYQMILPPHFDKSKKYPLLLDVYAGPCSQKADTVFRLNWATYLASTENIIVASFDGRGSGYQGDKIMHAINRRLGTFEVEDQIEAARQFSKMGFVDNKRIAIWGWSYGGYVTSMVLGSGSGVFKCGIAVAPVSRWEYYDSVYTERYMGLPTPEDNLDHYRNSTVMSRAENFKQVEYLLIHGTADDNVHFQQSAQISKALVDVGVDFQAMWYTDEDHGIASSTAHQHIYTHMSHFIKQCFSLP

SMILES	% inhibition at 1 mM
O=C(O)C1=CO[C@@H](O[C@@H]2O[C@H](CO)[C@@H](O)[C@H](O)[C@H]2O)[C@@H]2C(CO)=C[C@@H](O)[C@H]12 [compound 3, scandoside]	the six GJE compounds inhibited the activity of DPP-IV
O=C(O)C1=CO[C@@H](O[C@@H]2O[C@H](CO)[C@@H](O)[C@H](O)[C@H]2O)[C@@H]2C(CO)=CC[C@H]12 [compound 4, geniposidic acid]	the six GJE compounds inhibited the activity of DPP-IV
C[C@]1(O)C[C@@H](O)[C@@H]2C(C(=O)O)=CO[C@@H](O[C@@H]3O[C@H](CO)[C@@H](O)[C@H](O)[C@H]3O)[C@@H]21 [compound 6, shanzhiside]	the six GJE compounds inhibited the activity of DPP-IV
COC(=O)C1=CO[C@@H](O[C@@H]2O[C@H](CO)[C@@H](O)[C@H](O)[C@H]2O)[C@H]2[C@@H]1[C@H](O)C[C@]2(C)O [compound 5, shanzhiside methyl ester]	the six GJE compounds inhibited the activity of DPP-IV
